Tests used:
[1] = system: E. coli BAA-196 (TEM-10); experiment: MIC, Agar Dilution Method, ESBL producing ATCC isolate; type: cell-based
Experimental: (§1) The novel compounds were tested for the in vitro antibacterial activities by the Agar Dilution Method as specified in documents published by NCCLS, now CLSI, USA. (National Committee for Clinical Laboratory Standards (NCCLS). 2003. Approved standard M7-A6. NCCLS, Villanova, Pa.).
(§2) Tazo was also dissolved in same buffer to get a solution of, e.g., 1 mg/mL. Novel penam derivatives described herein were dissolved in water to get a solution of, e.g., 1 mg/mL.
(§3) The novel compounds and Tazo were also tested individually. The bacterial inoculum was prepared by picking 3 to 5 well-isolated bacterial colonies with the same morphological appearance from an 18-24 h old culture and adjusting the turbidity of the saline suspension to 0.5 McFarland Turbidity Standard equivalent to a bacterial population of 1.5×10^8 colony forming units (CFU) per mL of suspension. The suspension was diluted 1:10 in saline (i.e. 0.5 mL suspension+4.5 mL saline) to get a bacterial population of 1.5×10^7 CFU/mL as inoculum. […] The inoculated petridishes were incubated at 35° C. in an ambient atmosphere for 16-20 h.

[2] = system: E. coli BAA-197 (TEM-12); experiment: as above; type: cell-based
Experimental: as §1, §2, §3

[3] = system: E. coli BAA-198 (TEM-26); experiment: as above; type: cell-based
Experimental: as §1, §2, §3

[4] = system: E. coli BAA-199 (SHV-3); experiment: as above; type: cell-based; conditions: E. coli BAA-199, SHV-3
Experimental: as §1, §2, §3

[5] = system: E. coli BAA-200 (SHV-4); experiment: as above; type: cell-based; conditions: E. coli BAA-200, SHV-4
Experimental: as §1, §2, §3

[6] = system: E. coli BAA-201 (TEM-3); experiment: as above; type: cell-based
Experimental: as §1, §2, §3

[7] = system: E. coli BAA-202 (SHV-1); experiment: as above; type: cell-based
Experimental: as §1, §2, §3

[8] = system: K. pneumoniae 51503 (TEM-10 & -12); experiment: as above; type: cell-based
Experimental: as §1, §2, §3

[9] = system: P. mirabilis BAA-663 (TEM-89); experiment: as above; type: cell-based
Experimental: as §1, §2, §3

[10] = system: E. coli MRO 10006; experiment: In vivo efficacy, infected mice; conditions: Swiss albino mice infected with E. coli MRO 10006; Piperacillin:inhibitor 4:1; 7-day survival
Experimental: (§4) The efficacy studies were performed as described earlier (Kuck et al, 1989, Antimicrob. Agents. Chemother. 33(11): 1964-1969). Briefly, Swiss albino mice, 20+2 g, from in-house breeding facility were challenged by the intraperitoneal injection of bacterial suspensions in 0.5 mL of hog gastric mucin (10 to 100 50% lethal doses). […] All the untreated control animals died within 48 h of infection. In each experiment, in-house Tazo was used as an inhibitor control in four doses. Median (50%) effective dose (ED50) were determined by applying the Reed and Muench's method of the 7-day survival ratios.

[11] = system: E. coli MRO 10007; experiment: In vivo efficacy, infected mice; conditions: Swiss albino mice infected with E. coli MRO 10007; Piperacillin:inhibitor 4:1; 7-day survival
Experimental: as §4

[12] = system: K. pneumoniae MRO 11008; experiment: In vivo efficacy, infected mice; conditions: Swiss albino mice infected with K. pneumoniae MRO 11008; Piperacillin:inhibitor 4:1; 7-day survival
Experimental: as §4

Q: With `C[C@]1(Cn2ccnn2)[C@H](C(=O)O)N2C(=O)C[C@H]2S1(=O)=O` [Tazo] as the molecule, how does the “MIC of Piperacillin with different concentrations of Tazo or compound of Example 1” value ([1]; inhibitor 1 μg/mL) read?
A: 64 µg/mL

Q: What about the “MIC of Piperacillin with different concentrations of Tazo or compound of Example 1” value ([1]; inhibitor 2 μg/mL) of the same molecule?
A: 16 µg/mL

Q: And the “MIC of Piperacillin with different concentrations of Tazo or compound of Example 1” value ([1]; inhibitor 4 μg/mL)?
A: 4 µg/mL

Q: And the “MIC of Piperacillin with different concentrations of Tazo or compound of Example 1” value ([2]; inhibitor 1 μg/mL)?
A: 64 µg/mL

Q: And the “MIC of Piperacillin with different concentrations of Tazo or compound of Example 1” value ([2]; inhibitor 2 μg/mL)?
A: 8 µg/mL

Q: And the “MIC of Piperacillin with different concentrations of Tazo or compound of Example 1” value ([2]; inhibitor 4 μg/mL)?
A: 4 µg/mL

Q: What about the “MIC of Piperacillin with different concentrations of Tazo or compound of Example 1” value ([3]; inhibitor 1 μg/mL) of the same molecule?
A: 4 µg/mL

Q: And the “MIC of Piperacillin with different concentrations of Tazo or compound of Example 1” value ([3]; inhibitor 2 μg/mL)?
A: 4 µg/mL

Q: And the “MIC of Piperacillin with different concentrations of Tazo or compound of Example 1” value ([3]; inhibitor 4 μg/mL)?
A: 4 µg/mL

Q: What about the “MIC of Piperacillin with different concentrations of Tazo or compound of Example 1” value ([4]; inhibitor 1 μg/mL) of the same molecule?
A: >128 µg/mL

Q: What about the “MIC of Piperacillin with different concentrations of Tazo or compound of Example 1” value ([4]; inhibitor 2 μg/mL) of the same molecule?
A: >128 µg/mL

Q: And the “MIC of Piperacillin with different concentrations of Tazo or compound of Example 1” value ([4]; inhibitor 4 μg/mL)?
A: >128 µg/mL

Q: And the “MIC of Piperacillin with different concentrations of Tazo or compound of Example 1” value ([5]; inhibitor 1 μg/mL)?
A: >128 µg/mL

Q: What about the “MIC of Piperacillin with different concentrations of Tazo or compound of Example 1” value ([5]; inhibitor 2 μg/mL) of the same molecule?
A: >128 µg/mL

Q: What about the “MIC of Piperacillin with different concentrations of Tazo or compound of Example 1” value ([5]; inhibitor 4 μg/mL) of the same molecule?
A: 4 µg/mL

Q: What about the “MIC of Piperacillin with different concentrations of Tazo or compound of Example 1” value ([6]; inhibitor 1 μg/mL) of the same molecule?
A: 4 µg/mL

Q: What about the “MIC of Piperacillin with different concentrations of Tazo or compound of Example 1” value ([6]; inhibitor 2 μg/mL) of the same molecule?
A: 4 µg/mL

Q: What about the “MIC of Piperacillin with different concentrations of Tazo or compound of Example 1” value ([6]; inhibitor 4 μg/mL) of the same molecule?
A: 2 µg/mL

Q: What about the “MIC of Piperacillin with different concentrations of Tazo or compound of Example 1” value ([7]; inhibitor 1 μg/mL) of the same molecule?
A: >128 µg/mL

Q: And the “MIC of Piperacillin with different concentrations of Tazo or compound of Example 1” value ([7]; inhibitor 2 μg/mL)?
A: >128 µg/mL

Q: And the “MIC of Piperacillin with different concentrations of Tazo or compound of Example 1” value ([7]; inhibitor 4 μg/mL)?
A: >128 µg/mL

Q: What about the “MIC of Piperacillin with different concentrations of Tazo or compound of Example 1” value ([8]; inhibitor 1 μg/mL) of the same molecule?
A: >128 µg/mL

Q: What about the “MIC of Piperacillin with different concentrations of Tazo or compound of Example 1” value ([8]; inhibitor 2 μg/mL) of the same molecule?
A: >128 µg/mL

Q: What about the “MIC of Piperacillin with different concentrations of Tazo or compound of Example 1” value ([8]; inhibitor 4 μg/mL) of the same molecule?
A: 16 µg/mL

Q: What about the “MIC of Piperacillin with different concentrations of Tazo or compound of Example 1” value ([9]; inhibitor 1 μg/mL) of the same molecule?
A: 8 µg/mL

Q: And the “MIC of Piperacillin with different concentrations of Tazo or compound of Example 1” value ([9]; inhibitor 2 μg/mL)?
A: 8 µg/mL

Q: And the “MIC of Piperacillin with different concentrations of Tazo or compound of Example 1” value ([9]; inhibitor 4 μg/mL)?
A: 4 µg/mL

Q: And the “ED50 of Piperacillin in combination with inhibitor” value (“ED50 … with inhibitor” below) [10]?
A: 37.22 mg/kg b.w.

Q: And the “ED50 … with inhibitor” value [11]?
A: 58.81 mg/kg b.w.

Q: And the “ED50 … with inhibitor” value [12]?
A: 99.48 mg/kg b.w.
